Paper PMC4361037 (Annals of neurology, 2014)
“And” between values parts separate entries of the source, which are not always exact repeats. Identical values can stand only once. Like-named read-outs stand apart in the source and are kept apart here.

Tests used:
[1] = test system: GAA•TTC repeats
[2] = test system: GAA repeat RNA–containing foci
[3] = human, in vivo, po
[4] = clinical; conditions: human, in vivo, po; for half-life: t½ (elimination half-life)
[5] = test system: FXN mRNA; test: qRT-PCR analysis of FXN mRNA expression in FRDA iPSC-derived neurons; type: cell-based, human; conditions: 10μM, 24-hour treatment
[6] = test system: HDAC3 versus HDAC1/2; conditions: cited from earlier work
[7] = test system: FXN mRNA and protein; conditions: cited from earlier work; for upregulation of FXN mRNA and protein: patient PBMCs
[8] = target: human ether-a-go-go related gene (hERG) (Homo sapiens, UniProt Q12809); test: Automated patch clamp assay; type: cell-based
[9] = test system: FXN transcription; conditions: doses up to 8g per day; cited from earlier work
[10] = test system: voltage-gated Na+ channel; type: cell-based, human

Chain of human ether-a-go-go related gene (hERG) (Q12809 whole entry): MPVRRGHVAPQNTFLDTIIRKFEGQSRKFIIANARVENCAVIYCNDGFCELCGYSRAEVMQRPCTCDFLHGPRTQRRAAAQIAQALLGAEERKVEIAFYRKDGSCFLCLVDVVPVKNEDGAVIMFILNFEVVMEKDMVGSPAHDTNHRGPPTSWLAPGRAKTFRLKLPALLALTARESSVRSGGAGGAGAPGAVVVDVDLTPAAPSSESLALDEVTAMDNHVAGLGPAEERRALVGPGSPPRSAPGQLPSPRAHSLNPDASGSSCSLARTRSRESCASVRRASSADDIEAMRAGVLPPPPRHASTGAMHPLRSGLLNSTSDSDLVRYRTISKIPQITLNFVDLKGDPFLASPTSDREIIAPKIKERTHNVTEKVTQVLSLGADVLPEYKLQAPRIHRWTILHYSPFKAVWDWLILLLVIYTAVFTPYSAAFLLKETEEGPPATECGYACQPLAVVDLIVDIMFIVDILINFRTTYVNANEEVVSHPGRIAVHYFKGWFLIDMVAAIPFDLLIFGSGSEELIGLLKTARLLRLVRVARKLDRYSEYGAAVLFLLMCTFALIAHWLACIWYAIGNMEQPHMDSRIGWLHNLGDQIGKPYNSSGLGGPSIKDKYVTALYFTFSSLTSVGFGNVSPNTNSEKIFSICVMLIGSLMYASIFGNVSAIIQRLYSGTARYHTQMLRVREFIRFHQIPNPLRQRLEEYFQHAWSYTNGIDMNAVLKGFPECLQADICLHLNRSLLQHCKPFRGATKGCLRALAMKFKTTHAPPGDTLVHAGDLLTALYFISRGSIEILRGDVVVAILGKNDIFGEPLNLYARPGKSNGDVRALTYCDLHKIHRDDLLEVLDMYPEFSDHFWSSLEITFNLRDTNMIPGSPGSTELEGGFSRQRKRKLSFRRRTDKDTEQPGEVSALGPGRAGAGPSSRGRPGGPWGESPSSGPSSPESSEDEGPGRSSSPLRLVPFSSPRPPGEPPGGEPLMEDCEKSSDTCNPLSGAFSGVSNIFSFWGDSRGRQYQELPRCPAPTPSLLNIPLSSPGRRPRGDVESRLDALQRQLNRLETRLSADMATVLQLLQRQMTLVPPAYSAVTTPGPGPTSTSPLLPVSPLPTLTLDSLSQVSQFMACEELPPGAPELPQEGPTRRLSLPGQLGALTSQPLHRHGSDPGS

**Q.** What does the source list for `Cc1ccc(C(=O)NCCCCCC(=O)Nc2ccccc2N)cc1` [HDACi 109, N-[6-(2-aminophenylamino) −6-oxohexyl]-4-methylbenzamide]?
**A.** GAA•TTC repeat instability [1]: no effect on repeat instability; RNA nuclear foci [2]: lack of RNA nuclear foci; CL/F [3]: 6.39±1.71 (5) l/h; Cmax (time of) [3]: ≤ 2 h; CL/F ([3]; 30 mg): 3.91±0.59 (2) l/h; CL/F ([3]; 60 mg): 6.43±1.51 (3) l/h; CL/F ([3]; 120 mg): 5.80±1.46 (5) l/h; CL/F ([3]; 180 mg): 5.24±0.89 (5) l/h; AUC(0-inf) [4]: 39600 ng·h/mL; AUC(0-t) [4]: 39300 ng·h/mL; CL/F [4]: 1.98 mL/min/kg; Cmax [4]: 7150 ng/mL; Tmax [4]: 0.5 h; Vd/F [4]: 75.5 L and 1.41 L/kg; k el [4]: 2.34e-05 s⁻¹; AUC(0-inf) ([4]; 30 mg): 7760 ng·h/mL; AUC(0-t) ([4]; 30 mg): 7700 ng·h/mL; CL/F ([4]; 30 mg): 1.02 mL/min/kg; Cmax ([4]; 30 mg): 1980 ng/mL; Tmax ([4]; 30 mg): 0.67 h; Vd/F ([4]; 30 mg): 45.1 L and 0.69 L/kg; k el ([4]; 30 mg): 2.49e-05 s⁻¹; half-life ([4]; 30 mg): 8.2 h; AUC(0-inf) ([4]; 60 mg): 9720 ng·h/mL; AUC(0-t) ([4]; 60 mg): 9630 ng·h/mL; CL/F ([4]; 60 mg): 1.45 mL/min/kg; Cmax ([4]; 60 mg): 2560 ng/mL; Tmax ([4]; 60 mg): 0.67 h; Vd/F ([4]; 60 mg): 79 L and 1.04 L/kg; k el ([4]; 60 mg): 2.37e-05 s⁻¹; half-life ([4]; 60 mg): 8.43 h; AUC(0-inf) ([4]; 120 mg): 22000 ng·h/mL; AUC(0-t) ([4]; 120 mg): 21700 ng·h/mL; CL/F ([4]; 120 mg): 1.42 mL/min/kg; Cmax ([4]; 120 mg): 6470 ng/mL; Tmax ([4]; 120 mg): 1 h; Vd/F ([4]; 120 mg): 89.7 L and 1.32 L/kg; k el ([4]; 120 mg): 2.05e-05 s⁻¹; half-life ([4]; 120 mg): 10.1 h; AUC(0-inf) ([4]; 180 mg): 35100 ng·h/mL; AUC(0-t) ([4]; 180 mg): 34900 ng·h/mL; CL/F ([4]; 180 mg): 1.65 mL/min/kg; Cmax ([4]; 180 mg): 10900 ng/mL; Tmax ([4]; 180 mg): 0.67 h; Vd/F ([4]; 180 mg): 52.8 L and 1 L/kg; k el ([4]; 180 mg): 2.82e-05 s⁻¹; half-life ([4]; 180 mg): 7.07 h; half-life [4]: 8.56 h

**Q.** With `Nc1ccc(-c2cccs2)cc1NC(=O)CCCCCCNC(=O)c1cccnc1` [HDACi 233, N-[2-amino-5-(2-thienyl)phenyl]-7-nicotinoylamino-heptanamide] as the molecule, how does the “FXN gene expression induction compared with HDACi 109” value [5] read?
**A.** Neither of these latter compounds induced FXN gene expression to the extent observed with HDACi 109

**Q.** For `Nc1cc(F)ccc1NC(=O)/C=C/c1cnn(CC=Cc2ccccc2)c1` [HDACi 966, [E]-N-[2-amino-4-fluorophenyl]-3-[1-cinnamyl-1H-pyrazol-4-yl]acrylamide], which “FXN gene expression induction compared with HDACi 109” value [5] is on record?
**A.** Neither of these latter compounds induced FXN gene expression to the extent observed with HDACi 109

**Q.** And the “selectivity for HDAC3 over HDAC1/2” value [6]?
**A.** ~ 30 fold

**Q.** Which FXN upregulation ([7]; patient lymphocytes) does the source give for `Nc1ccc(-c2ccccc2)cc1NC(=O)CCCCCC(=O)Nc1ccccc1` [N[1]-[4-aminobiphenyl-3-yl]-N[7]-phenylheptanediamide] here?
**A.** inactive

**Q.** With `O=C(CCCCCCC(=O)Nc1ccccc1)NO` [SAHA, suberoylanilide hydroxamic acid] as the molecule, how does the “upregulation of FXN mRNA and protein” value [7] read?
**A.** fail to elicit this effect

**Q.** Which IC50 [8] does the source give for `c1ccc2[nH]cnc2c1` [benzimidazole] here?
**A.** 920 nM

**Q.** With `NC(=O)c1cccnc1` [nicotinamide] as the molecule, how does the “restoring FXN transcription in peripheral lymphocytes from blood of orally dosed patients” value [9] read?
**A.** effective

**Q.** Which action potential generation [10] does the source give for `NC1=N[C@H](O)[C@H]2[C@H]3O[C@]4(O)O[C@@H]([C@@H](O)[C@@]2(N1)[C@@H]4O)[C@]3(O)CO` [tetrodotoxin] here?
**A.** reversibly blocked AP generation

**Q.** With `Cc1ccc(S(=O)(=O)O)cc1` [toluene sulfonic acid] as the molecule, how does the “upregulation of FXN mRNA and protein” value [7] read?
**A.** fail to elicit this effect
